Laboratory results reported in patent US20260226101A1, “PEPTIDE WITH ANTI-INFLAMMATORY AND ANTI-MICROBIAL ACTIVITY” (priority 2023, published 2026).
Ends that are not written are not given here.

What was measured:
in vitro = assay type: cell-based, murine; conditions: mouse
Description: Cell viability of synthetic peptides on the growth of RAW264.7 cells was measured using the methyl thiazolyl tetrazolium (MTT) assay after 48 h. Briefly, exponentially growing macrophages RAW264.7 cells were mechanically scraped, plated at a density of 7×10^3 cells in 100 μl were seeded into each well of a 96-well plate then incubated for 12 h at 37° C. under 5% CO2, and then the cells are treated with test peptides: IS 111 ([…]) or dexamethasone ([…]) cells were incubated at 37° C. in the presence of 5% CO2 for 42 h. After incubation, the morphology of cells was examined under a microscope. Following incubation, MTT was added to the cells (20 μL at 5 mg/mL MTT dissolved in 1×PBS) and incubated for 4 hours in the presence of 5% CO2 at 37° C. Formazan crystals were dissolved by the addition of 100 μL of 100% DMSO per well. Plates were then gently swirled for 5 min at room temperature to dissolve the precipitate. Absorbance was monitored at 575 nm using a microplate reader. Maximum cytotoxicity (100%) was determined by cells incubated with 1% Triton X-100; PBS was used as a negative control. Cells without treatment were considered as control. The average absorbance for each sample group was used to evaluate cell viability.
Optical density (O.D.) was calculated as the difference between the absorbance at the reference wavelength and that at the test wavelength. The relative cell viability was determined by the amount of MTT converted to the insoluble formazan salt. The data were expressed as the mean percentage of viable cells when compared with untreated cells (control). The half maximal growth inhibitory concentration (IC50) value was calculated from the line equation of the dose-dependent curve of each compound. The results were compared with the cytotoxic activity of dexamethasone, a known anti-inflammatory drug. […] Percentages of cell viability and LC50 of cells were calculated: Percent cell viability was calculated as (O.D. of drug-treated sample/control O.D.)×100. The data were expressed as percent cell viability compared with control (dimethyl sulfoxide/NS). The experiment was carried out in four samples of each concentration.
The percentages of cell viability and LC50 of cells were calculated by using the formula below.
Where Absorbance control is the DMSO 0.1%-treated cell absorbance, and Absorbance sample is the test sample-treated cell absorbance. LC50 values were derived from dose-response curves, and data were expressed as the mean of three independent experiments. Statistical analyses involved Student's t-test and one-way ANOVA.
The test peptide IS 111 cytotoxic effects on RAW 264.7 mouse […] were determined by MTT assay. […] Cell viability was measured by MTT assay based on the conversion of yellow tetrazolium salt to form a purple formazan product. The viability of the RAW 264.7 cells can be seen on table 21.

[1] = test system: LPS-stimulated peritoneal macrophages; test: Cytokine ELISA in LPS-stimulated peritoneal macrophages; assay type: cell-based, BALB/c mice
Description: BALB/c mice (6-8 wk old) of either sex was injected IP with 1 ml of 4% sterile thioglycollate broth in PBS. After 4 d, mice were sacrificed, and peritoneal macrophages were harvested as described below [Meurer S K, 2016] and this model is well known as “Thioglycollate-induced peritonitis model”. […] After 4 days, mice were then euthanized, and the peritoneal macrophages were harvested by lavaging the peritoneal cavity with 5-6 mL of harvest medium (EDTA 5 mM+PBS). Isolated peritoneal exudate cells were washed twice with RPMI and centrifuged at 1000 rpm/400×g for 8-10 min at 4° C. […] The plates were then washed with warm PBS to remove non-adherent cells. […] After 24 h, culture supernatants were collected for estimation of cytokines by ELIZA and RTqPCR, whereas cells were harvested for western blotting. The procedure of ELISA, RTqPCR and other conditions are same as in the section. [Min Jee Kim et al., 2014].

[2] = test system: LPS-induced phosphorylation of ERK1/2 and p38 MAPK; test: Western blot of MAPK pathway in LPS-stimulated RAW 264.7 cells; assay type: cell-based, murine
Description: As previously described, RAW264.7 cells were cultured and treated with LPS and synthetic peptides. After 18 h, cells were washed with PBS and lysed by incubating with RIPA lysis buffer cocktail (RIPA Lysis buffer, PMSF (1 mM), Protease inhibitor (1 μg/mL), phosphatase inhibitor (1 mM)) at […] for 30 minutes. Post incubation, cell lysate was collected by scraping cells and centrifuged at 12000 rpm for 15 min.
The protein concentration was determined using the Bicinchoninic acid kit method with bovine serum albumin as the standard (provided in the kit), according to the manufacturer's instructions. Protein bands were electrophoretically transferred to a polyvinylidene difluoride (PVDF) membrane via semi-dry transfer blotting, Membranes were blocked with 5% BSA in PBST (1% Tween 20 in PBS) at 20-24° C. for 1 h, then incubated with primary antibodies against IL-10, TLR 4, VEGF, P38 p-p38, ERK and p-ERK, the dilutions are listed in table 3., at 4° C. overnight. GAPDH was used as a protein-loading control. The membrane was washed 3 times (10 min. each) with Tris-buffered saline/Tween 20 (TBST) and then treated with horseradish peroxidase (HRP)-conjugated secondary antibody (1:10000) for 1 h. The membrane was washed again with TBST. The membrane-binding antibodies were visualized later with the ECL detection reagent and images were acquired in a Fusion SL Imaging System. Band density was analyzed by densitometry using Image J software.

FAKKFAK [IS 111, Phe-Ala-Lys-Lys-Phe-Ala-Lys]
viability at 48 h, 1.5625 μg/mL (in vitro): 84.5%
viability at 48 h, 3.125 μg/mL (in vitro): 91.5%
viability at 48 h, 6.25 μg/mL (in vitro): 90.2%
viability at 48 h, 12.5 μg/mL (in vitro): 99.7%
viability at 48 h, 25 μg/mL (in vitro): 96.4%
viability at 48 h, 50 μg/mL (in vitro): 95%
viability at 48 h, 100 μg/mL (in vitro): 91.4%
Concentration of maximum inhibition for all cytokines ([1]; IL-1β, IL-6, IL-12p70, TNF-α, text prints RAW 264.7 cells): 100 µM
IL-10 levels ([1]; summary table): TNF-α and ↑ IL-10 levels.
IL-10 levels (western blot) ([2]; IS111 treated cells): increased
Phosphorylation of ERK (p-ERK1/2) ([2]; LPS-induced, western blot): significantly inhibited
LPS-induced increase of p38 phosphorylation ([2]; concentration-dependent, western blot): markedly prevented
